Experimental data published in patent US9840498B2, “Substituted quinazolin-4-one derivatives” (NOVARTIS AG, priority 2013, dated 2017).

Assays:
[1] = molecular target: human phosphoinositide-3 kinase (PI3K) alpha (Homo sapiens (Human), UniProt P42336); assay: PI3K-mediated Akt 1/2 (S473) phosphorylation in Rat-1 cells overexpressing PI3K alpha; type: cell-based, rat cells expressing human PI3K alpha; conditions: cellular assay, p-AKT(Ser473), read-out: Cell PI3K alpha IC50
Description: (§1) 2.1 Phosphoinositide-3 kinase (PI3K)-Mediated Akt 1/2 (S473) Phosphorylation in Rat-1 Cells
(§2) Rat-1 cells stably overexpressing a myristoylated form of the catalytic subunit of human phosphoinositide-3 kinase (PI3K) alpha, beta or delta were plated in 384-well plates at a density of 7500 (PI3K alpha), 6200 (PI3K beta), or 4000 (PI3K delta) cells in 30 ul complete growth medium (Dulbecco's modified Eagle's medium (DMEM high glucose) supplemented with 10% (v/v) fetal bovine serum, 1% (v/v) MEM non essential amino acids, 10 mM HEPES, 2 mM L-glutamine, 10 μg/mL puromycin and 1% (v/v) Penicillin/Streptomycin) and were incubated at […]/5% CO2/95% humidity for 24 h. Compounds were diluted in 384-well compound plates (compound master plates), to obtain 8-point serial dilutions for 40 test compounds in 90% DMSO, as well as 4 reference compounds plus 16 high controls and 16 low (inhibited) controls. Predilution plates were prepared by dispensing pipetting 250 nl of compound solutions into 384-well polypropylen plates (daugther plates), using a Hummingwell nanoliter dispenser. Compounds were prediluted by the addition of 49.75 ul complete growth medium. 10 ul of prediluted compound solution were transferred to the cell plate using a 384-well pipettor, resulting in a final DMSO concentration of 0.11%. Cells were incubated for 1 h at […]/5% CO2/95% humidity. The supernatant was removed, the cells were lysed in 20 ul of lysis buffer for AlphaScreen® SureFire® detection.
(§3) For detection of p-AKT(Ser473), the SureFire® p-Akt 1/2 (Ser473) Assay Kit (PerkinElmer, U.S.A.) was used. 5 ul of cell lysate was transferred to 384-well low volume Proxiplates for detection using a 384-well pipettor. Addition of AlphaScreen® SureFire® reagents was done according to the manufacturer's protocol. First, 5 ul of reaction buffer plus activation buffer mix containing AlphaScreen® acceptor beads was added, the plate was sealed, and incubated on a plate shaker for 2 hours at room temperature. Second, 2 ul of dilution buffer containing AlphaScreen® donor beads was added, and the plate was incubated on plate shaker as above for a further 2 hours. The plate was read on an AlphaScreen® compatible plate reader, using standard AlphaScreen® settings. Alternatively, p-AKT(Ser473) was detected with the CisBio HTRF Assay Kit: As positive control, 0.9 mM of 1-(3-(trifluoromethyl)-4-(piperazin-1-yl)phenyl)-8-(6-methoxypyridin-3-yl)-3-methyl-1H-imidazo[4,5-c]quinolin-2(3H)-one maleic acid salt in 90% (v/v) DMSO was added to the compound master plate. For compound testing, the cells were seeded at a density of 4000 (Rat-1_PI3Kdelta), 8000 (Rat-1_PI3Kalpha), or 6500 (Rat-1_PI3Kbeta) cells in 30 ul complete growth medium into 384-well plates, with a plastic surface promoting the adhesion of cells and their growth (assay plates) and were grown at 37° C./5% CO2/90% humidity for 24 h. Some 10 ul of the compound predilutions from the daughter plate were then transferred to the cells. After treatment with compound for 1 h, medium was removed and cells were lysed by the addition of 20 ul lysis buffer supplemented with blocking buffer. Detection of p-AKT(Ser473) was performed with the HTRF pAKT (Ser473) assay kit according to the manufacturer's instructions using 16 ul of cell lysate in a total detection volume of 20 ul.

[2] = molecular target: human phosphoinositide-3 kinase (PI3K) delta (Homo sapiens (Human), UniProt O00329); assay: PI3K-mediated Akt 1/2 (S473) phosphorylation in Rat-1 cells overexpressing PI3K delta; type: cell-based; conditions: cellular assay, p-AKT(Ser473), read-out: Cell PI3K delta IC50
Sequence of human phosphoinositide-3 kinase (PI3K) delta (O00329 whole entry): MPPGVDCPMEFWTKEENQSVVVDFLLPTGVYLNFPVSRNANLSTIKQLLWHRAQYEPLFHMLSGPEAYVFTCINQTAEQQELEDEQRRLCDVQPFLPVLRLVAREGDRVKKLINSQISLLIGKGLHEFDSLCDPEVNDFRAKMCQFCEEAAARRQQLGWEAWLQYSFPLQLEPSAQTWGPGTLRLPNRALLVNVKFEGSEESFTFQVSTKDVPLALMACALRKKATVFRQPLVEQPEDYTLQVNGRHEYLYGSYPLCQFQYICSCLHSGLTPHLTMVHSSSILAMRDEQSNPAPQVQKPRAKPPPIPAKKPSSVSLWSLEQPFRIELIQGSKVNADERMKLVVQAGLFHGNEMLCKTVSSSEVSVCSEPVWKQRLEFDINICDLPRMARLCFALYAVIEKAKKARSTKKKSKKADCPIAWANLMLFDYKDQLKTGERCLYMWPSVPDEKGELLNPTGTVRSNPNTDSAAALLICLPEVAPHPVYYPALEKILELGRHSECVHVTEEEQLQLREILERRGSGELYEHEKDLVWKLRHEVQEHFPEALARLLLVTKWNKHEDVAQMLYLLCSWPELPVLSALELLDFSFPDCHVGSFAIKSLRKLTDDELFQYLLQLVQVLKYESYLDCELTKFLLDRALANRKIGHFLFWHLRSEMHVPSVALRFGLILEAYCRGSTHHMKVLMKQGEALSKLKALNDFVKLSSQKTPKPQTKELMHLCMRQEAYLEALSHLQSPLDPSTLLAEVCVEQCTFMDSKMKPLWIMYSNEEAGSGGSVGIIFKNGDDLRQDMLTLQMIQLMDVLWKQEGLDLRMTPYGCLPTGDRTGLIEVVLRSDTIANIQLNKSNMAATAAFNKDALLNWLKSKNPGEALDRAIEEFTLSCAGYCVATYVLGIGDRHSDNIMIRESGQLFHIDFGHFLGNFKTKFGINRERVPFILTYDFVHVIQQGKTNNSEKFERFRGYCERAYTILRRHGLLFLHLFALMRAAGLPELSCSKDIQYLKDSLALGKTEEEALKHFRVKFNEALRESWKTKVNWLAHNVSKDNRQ
Sequence of human phosphoinositide-3 kinase (PI3K) delta (Q63787 whole entry partner): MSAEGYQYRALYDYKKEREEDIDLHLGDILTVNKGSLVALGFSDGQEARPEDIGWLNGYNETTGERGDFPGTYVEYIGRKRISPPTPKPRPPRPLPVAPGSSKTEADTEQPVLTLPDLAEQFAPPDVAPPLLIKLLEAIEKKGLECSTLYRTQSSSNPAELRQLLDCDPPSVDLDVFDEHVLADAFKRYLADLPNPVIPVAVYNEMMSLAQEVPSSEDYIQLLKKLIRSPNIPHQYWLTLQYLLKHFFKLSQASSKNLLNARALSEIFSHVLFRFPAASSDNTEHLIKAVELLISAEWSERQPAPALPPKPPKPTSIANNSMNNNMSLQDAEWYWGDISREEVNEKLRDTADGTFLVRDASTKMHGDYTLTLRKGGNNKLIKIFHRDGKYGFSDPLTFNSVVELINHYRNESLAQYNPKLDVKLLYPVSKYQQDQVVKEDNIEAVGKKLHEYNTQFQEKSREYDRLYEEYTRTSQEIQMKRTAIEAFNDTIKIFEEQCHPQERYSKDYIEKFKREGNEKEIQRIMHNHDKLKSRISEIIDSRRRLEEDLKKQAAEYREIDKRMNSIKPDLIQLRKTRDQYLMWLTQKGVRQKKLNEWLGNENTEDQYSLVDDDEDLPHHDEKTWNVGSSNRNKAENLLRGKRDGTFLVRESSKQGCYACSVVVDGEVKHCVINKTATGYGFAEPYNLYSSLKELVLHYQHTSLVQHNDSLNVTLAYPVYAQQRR
Description: as §1, §2, §3

[3] = molecular target: PI 3-Kinase Gamma (Homo sapiens (Human), UniProt P48736); assay: Cellular U937 AKT assay for PI 3-kinase gamma; type: cell-based; conditions: U937 cells, MIP1α-stimulated AKT phosphorylation, read-out: Cell PI3K gamma IC50
Sequence of PI 3-Kinase Gamma (P48736 whole entry): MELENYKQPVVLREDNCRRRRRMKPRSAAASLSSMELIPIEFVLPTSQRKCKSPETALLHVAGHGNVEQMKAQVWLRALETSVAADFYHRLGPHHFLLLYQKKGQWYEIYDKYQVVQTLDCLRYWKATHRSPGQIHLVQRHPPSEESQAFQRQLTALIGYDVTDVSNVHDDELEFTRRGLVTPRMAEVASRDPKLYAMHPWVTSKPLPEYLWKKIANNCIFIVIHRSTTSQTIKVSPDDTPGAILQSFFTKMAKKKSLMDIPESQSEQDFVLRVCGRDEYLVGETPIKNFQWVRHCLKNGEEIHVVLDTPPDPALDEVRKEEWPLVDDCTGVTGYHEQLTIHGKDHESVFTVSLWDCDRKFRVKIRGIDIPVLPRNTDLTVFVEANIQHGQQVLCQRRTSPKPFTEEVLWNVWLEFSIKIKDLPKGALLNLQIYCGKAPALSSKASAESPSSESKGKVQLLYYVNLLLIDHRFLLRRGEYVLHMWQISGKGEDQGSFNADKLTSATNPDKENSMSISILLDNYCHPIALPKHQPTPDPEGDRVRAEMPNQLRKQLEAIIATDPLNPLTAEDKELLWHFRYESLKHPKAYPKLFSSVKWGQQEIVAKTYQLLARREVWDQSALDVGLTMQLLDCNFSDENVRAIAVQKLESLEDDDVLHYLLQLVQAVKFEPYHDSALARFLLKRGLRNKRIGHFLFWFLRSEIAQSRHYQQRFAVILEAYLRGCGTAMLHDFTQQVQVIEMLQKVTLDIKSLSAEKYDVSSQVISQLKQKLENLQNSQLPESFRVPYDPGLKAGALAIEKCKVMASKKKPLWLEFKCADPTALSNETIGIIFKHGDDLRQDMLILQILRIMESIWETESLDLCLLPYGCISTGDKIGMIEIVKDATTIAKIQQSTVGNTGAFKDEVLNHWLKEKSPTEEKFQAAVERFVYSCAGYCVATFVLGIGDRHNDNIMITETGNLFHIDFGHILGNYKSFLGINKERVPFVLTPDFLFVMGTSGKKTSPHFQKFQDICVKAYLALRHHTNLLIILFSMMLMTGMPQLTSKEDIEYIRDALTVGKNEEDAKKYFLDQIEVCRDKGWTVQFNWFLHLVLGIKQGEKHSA
Description: The U937 monocyte cell line is maintained in a basal medium of RPMI 1640 supplemented with 10% heat inactivated FCS, 100 U/ml Penicillin, 100 ug/ml streptomycin and 2 mM L-glutamine (Invitrogen). U937 suspension culture is maintained by seeding cells at a density of 0.125×10^6 cells per ml in fresh medium every three or four days. Cells are incubated at 37° C., 5% CO2. […] Before beginning the cell manipulations described below, the MSD (Meso Scale Discovery) assay plate is blocked by addition of 150 ul/well blocking buffer supplied and incubated with shaking for a minimum of one hour at room temperature. All steps of the assay must be performed quickly, with accurately timed incubation periods and observing temperature controls where indicated. […] Falcon tube, counted and centrifuged for eight minutes at 300 g at room temperature. Supernatant is aspirated, the cell pellet resuspended and washed once in HBSS (Hank's Balanced Salt Solution) by centrifugation for eight minutes at 300 g at room temperature. The cell pellet is resuspended in HBSS to a concentration of 4×10^6 per ml, and 100 μL of cell suspension added to each well of a flat-bottomed 96-well tissue culture plate. Assay plates are incubated for 1.5 hours at 37° C., 5% CO2 to allow background AKT phosphorylation to reduce before the compound stimulation step. […] Compound concentrations at this stage are 4-times the final concentration required in the assay plate. Cells are stimulated with compound or HBSS 0.8% DMSO by direct transfer of 50 ul/well from the compound dilution plate. The assay plate containing compound-treated cells is then incubated for 30 minutes at 37° C. A standard plate layout is used for all experiments. Compound-treated cells, in addition to positive control wells (“max MIP1α”), are stimulated with 50 μL per well of 40 ng/ml MIP1α (R&D Systems catalogue number 270-LD, lyophilized stock reconstituted to 50 μg/ml with PBS 0.1% BSA). Negative control wells (“min HBSS”), are stimulated with 50 μl/well of HBSS in the absence of MIP1α. […] Cells are incubated with MIP1α for 3 minutes, at 37° C., 5% CO2. After the three minute stimulation period, the assay plate is kept ice cold at all times. Assay plates are centrifuged for 2 minutes at 300 g, 4° C. and supernatant is removed by gently inverting, and then blotting the plate on tissue. Cells are then washed by gentle addition of 150 μL/well of ice cold HBSS and centrifugation at 300 g, for 5 minutes at 4° C. Supernatant is aspirated and the plate blotted as described above. The plate is placed on ice and cells are immediately treated with 35 μL per well of ice cold lysis buffer, prepared according to the kit instructions (per assay plate, to 5 ml of Tris lysis buffer add 100 μl of 50× protease inhibitor solution and 50 μl of each 100× phosphatase inhibitor solutions I and II). Plates are incubated on ice for 20 minutes before centrifugation at 841 g for 5 minutes, 4° C. Block buffer is aspirated from the MSD plate, and the plate washed four times with 300 μl/well Tris wash buffer. 25 μL of cell lysate is then transferred from the assay plate to the washed MSD plate which is sealed and incubated at room temperature for one hour with shaking. The plate is washed four times with 300 μL per well of Tris wash buffer before addition of 25 μL per well of sulfo-tag anti-total AKT/pAKT detection antibody (60 μl of 50× antibody stock is diluted in 1 ml block buffer mixed with 2 ml wash buffer) and incubated at room temperature for one hour with shaking. The plate is washed four times with 300 μl per well of Tris wash buffer and 150 μl per well of Read buffer is added, taking care to avoid the introduction of bubbles. The plate is immediately read using an MSD SECTOR Imager 6000. Results are exported in Excel and the percentage of phosphorylated AKT is calculated using the equation: % Phosphoprotein=((2*Phospho signal)/(Phospho signal+Total signal))*100. […]

Sequence of human phosphoinositide-3 kinase (PI3K) alpha (P42336 whole entry): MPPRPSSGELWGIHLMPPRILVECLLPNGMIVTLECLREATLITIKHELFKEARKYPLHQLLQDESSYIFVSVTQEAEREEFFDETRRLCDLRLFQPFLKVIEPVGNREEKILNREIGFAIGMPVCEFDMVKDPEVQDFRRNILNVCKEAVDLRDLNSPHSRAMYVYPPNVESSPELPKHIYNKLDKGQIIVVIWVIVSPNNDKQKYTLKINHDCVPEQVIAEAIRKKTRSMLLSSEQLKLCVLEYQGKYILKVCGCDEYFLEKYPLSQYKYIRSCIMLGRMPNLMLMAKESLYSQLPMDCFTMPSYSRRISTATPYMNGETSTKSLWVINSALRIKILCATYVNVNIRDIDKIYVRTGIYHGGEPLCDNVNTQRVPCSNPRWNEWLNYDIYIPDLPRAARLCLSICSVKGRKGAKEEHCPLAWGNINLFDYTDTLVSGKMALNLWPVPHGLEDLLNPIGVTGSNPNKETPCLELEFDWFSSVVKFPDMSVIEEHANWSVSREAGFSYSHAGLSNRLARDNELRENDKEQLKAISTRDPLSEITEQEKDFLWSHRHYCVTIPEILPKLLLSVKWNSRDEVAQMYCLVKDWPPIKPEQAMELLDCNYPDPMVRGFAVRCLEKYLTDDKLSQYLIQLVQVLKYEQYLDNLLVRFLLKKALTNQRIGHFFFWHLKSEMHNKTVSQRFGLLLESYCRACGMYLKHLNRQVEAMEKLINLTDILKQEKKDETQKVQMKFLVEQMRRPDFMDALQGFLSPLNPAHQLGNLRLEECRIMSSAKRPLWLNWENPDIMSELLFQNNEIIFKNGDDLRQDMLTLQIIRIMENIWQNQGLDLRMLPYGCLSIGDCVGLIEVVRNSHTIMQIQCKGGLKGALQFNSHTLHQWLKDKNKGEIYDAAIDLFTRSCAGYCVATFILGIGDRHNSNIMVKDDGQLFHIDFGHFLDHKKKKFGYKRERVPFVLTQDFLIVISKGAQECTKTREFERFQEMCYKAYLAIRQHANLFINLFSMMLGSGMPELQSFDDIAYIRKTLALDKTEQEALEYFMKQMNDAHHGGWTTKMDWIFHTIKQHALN
Sequence of human phosphoinositide-3 kinase (PI3K) alpha (Q63787 whole entry partner): as the sequence (Q63787 whole entry partner) above

SMILES: Cc1ncc(-c2cccc3nc([C@@H]4C[C@H](O)CN4c4nc(N)nc(C)c4C#N)n(-c4ccccc4)c(=O)c23)cn1 [Example 23, 2-Amino-4-((2S,4S)-4-hydroxy-2-(5-(2-methylpyrimidin-5-yl)-4-oxo-3-phenyl-3,4-dihydroquinazolin-2-yl)pyrrolidin-1-yl)-6-methylpyrimidine-5-carbonitrile]
- IC50 [1]: > 10000 nM
- IC50 [2]: 13 nM
- IC50 [3]: 11 nM
